According to US20250230138A1, “COMPOUNDS HAVING A T-STRUCTURE FORMED BY AT LEAST FOUR CYCLES FOR USE IN THE TREATMENT OF CANCER AND OTHER INDICATIONS” (TheRas, Inc., priority 2022, published 2025):
Read-outs that look alike come from different tables or passages of the source.

What was measured:
[1] = target: Cys242 in human PIK3CA (157-299) (Homo sapiens (Human), UniProt P42336); test: Covalent modification assay using MALDI-TOF MS; assay type: biochemical; conditions: 4 h reaction time point
Protocol: Matrix-Assisted Laser Desorption Ionization-Time of Flight Mass Spectrometry (MALDI-TOF MS) analysis of covalent modification of Cys242 in human PIK3CA (157-299) was performed.
Reaction: 3.33 μM or 1 μM of PIK3CA (157-299) protein (produced in-house by Protein Expression Laboratory, FNLCR/Leidos Biomed) in 20 mM HEPES buffer containing 150 mM NaCl, 2 mM MgCl2, pH 7.3 was prepared freshly before assay. Twelve-μL aliquots of protein were dispensed onto low volume 384-well plate, then 470 nL DMSO and 30 nL of tested compounds from 10 mM DMSO stocks were added to appropriate wells using ECHO 555 acoustic liquid handler (Labcyte Inc.). For each reaction/assay, three blanks were prepared by mixing 12 μL of protein solution with 500 nL DMSO. The wells content was carefully mixed by aspiration, and then the plate was sealed by an adhesive cover, centrifuged at 931 g for 1 minute, and kept in the dark at room temperature until 15 min, 30 min, 2 h, or 4 h collections.
Targetpretreatment: Before each assay MALDI target (Bruker MPT 384 ground steel BC) was pre-treated by pipetting on each spot 0.75 μL of saturated sinapinic acid in acetonitrile (ACN).
Sample preparation: At collection time point, 2 μL of reaction mixtures were pipetted out into […] MALDI matrix solution (saturated solution of sinapinic acid in 1:1 ACN:water solution containing 0.15% trifluoroacetic acid (TFA)) deposited on 384 well polypropylene plate. The resulting solution was mixed by aspiration, centrifuged at 931 g for 1 minute, then 1.5 μL aliquots were dispensed on pre-treated MALDI target using Beckman Coulter Biomek FX^P 96/384-Span-8 Laboratory Automation Workstation. Finally, the MALDI target was dried under a mild vacuum to produce spots with a fine crystalline structure.
Measurements: MALDI-TOF measurements were performed on Bruker Daltonics rapifleX Tissuetyper TOF-TOF mass spectrometer using linear mode and mass ranging from 16.0 to 19.6 kDa. Detector gain was set to 0.64×(459 V), sample rate to 5 GS/s, real-time smoothing to medium (175 MHz), laser smart beam pattern was set to “Custom” single smartbeam beam scan with a scan range of 40 μm on both X and Y axis, and the laser frequency was 10000 Hz. Spectra were automatically collected using the custom AutoXecute method. Laser power was auto adjusted using fuzzy control. The peak selection range was set to be between 16.0 and 18.5 kDa. Peak evaluation uses a half-width parameter set to be smaller than 40 Da for processed spectrograms (centroid peak detection; smoothed by SavitzkyGolay algorithm using 7 m/z width and 2 cycles; baseline was subtracted using a median algorithm with flatness 1 and median level 0). Fuzzy control used Proteins/Oligonucleotides protocol with minimum half-width 1/10 times above threshold. Up to 40000 satisfactory shots were collected in 10000 short steps. Dynamic termination was implemented to finish data collection when the peak signal/noise ratio was reaching a value of 1000.
Spectra processing: Spectra were smoothed by SavitzkyGolay algorithm using 7 m/z width and three cycles. Centroid peak detection algorithm was used with signal to noise threshold set to 6, relative intensity threshold 3%, peak width 10 m/z, and median baseline subtraction using flatness of 1 and the median level of 0.1. Peak intensity and area under the peak were evaluated and recorded for all peaks between 16.0 and 19.5 kDa.
Calculation of percent modification: Percent modification was calculated as a ratio of peak height for protein modified by compound to the sum of the peak height of remaining protein plus peak height for protein modified by a compound. If multiple modifications were observed each was calculated as a ratio of peak height for given modification versus the sum of peak heights for all observed protein species.

[2] = tested on: pAKT in BT474 cells; test: Cell-based pAKT HTRF assay in BT474 cells; conditions: BT474 cells, 4 hr incubation, read-out: pAKT inhibition IC50 in BT474 cells
Protocol: On Day 1, cells were seeded into 96-well plates at 2.5×10^4 cells/well in complete growth media (DMEM, 10% FBS). On Day 2, cells were treated with compounds at 0.25% DMSO. The source plate was created with compounds diluted in media at 5-fold the final assay concentration. The compounds are run in a 9-point concentration curve starting at 3 μM, with a 3-fold dilution between concentrations. 20 μL was transferred onto the cell plates (final volume in wells was 100 μL). Plates were harvested after 4 hr incubation by aspirating media and adding kit-supplied 1× supplemented lysis buffer to all wells (75 μL per well). Plates were then placed on a plate shaker and incubated at 850 rpm for an additional 30 min. The antibody mixture solution was prepared by diluting aliquoted d2 and Eu Cryptate antibodies 1:20 in kit supplied detection buffer, then mixed the diluted antibodies solutions (1:1 v:v). 4 μL of this solution was then added to a 384-well detection plate (Perkin Elmer; 6008230). Samples were homogenized by pipetting up and down and then transferred (16 μL of cell lysates) from the 96-well cell culture plate to two wells of the HTRF 384-well detection plate containing the antibody solution. Plates were centrifuged (524 g for 1 min) and allowed to incubate between 4 and 24 h at room temperature. The maximum signal is reached after 4 h incubation time and remains stable over a period of 24 hours. Therefore, readings can be made between 4 and 24 h of incubation. Plates were centrifuged again (524 g for 1 m), and analyzed on the EnVision plate reader using the following settings: Excitation 320 nm, Bandwidth […]; Emission 615 nm, Bandwidth […], Gain 10000, Flashes 100, Lag 60 μs.

[3] = 3.33 μM protein target, 1:7.5 protein to compound ratio (compounds 1-852)
[4] = 1 μM protein target, 1:5 protein to compound ratio (compounds 853-1279)

Chain of Cys242 in human PIK3CA (157-299) (P42336 157-299): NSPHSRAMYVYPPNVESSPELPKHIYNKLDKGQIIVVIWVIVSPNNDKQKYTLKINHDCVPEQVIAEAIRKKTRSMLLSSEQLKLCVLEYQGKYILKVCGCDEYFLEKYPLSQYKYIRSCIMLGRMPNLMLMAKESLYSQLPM

| % of modification [1, 3] | IC50 ([2]; Compounds 10-999) [µM] | IC50 ([2]; Compounds 1000-1279) [µM] | Compound | % of modification [1, 4] |
| --- | --- | --- | --- | --- |
| D (percent of modification <25%) | > 3 | – | C=CC(=O)N1CCc2nc(-c3nc(-c4cnc5c(c4)CNC(=O)C5)c4ccsc4c3-c3c(F)cc(F)cc3OC(C)C)sc2C1 (single isomer, unassigned) [Compound 587] | – |
| – | > 3 | – | C=CC(=O)N1CCc2ccc(-c3nc(-c4ccc5c(c4)CNC5=O)c4ccsc4c3-c3c(F)cc(F)cc3OCCOC)cc2C1 (single isomer, unassigned) [Compound 886] | D (percent of modification <25%) |
| – | < 0.1 | – | C=CC(=O)N1CCc2ccc(-c3nc(-c4ccc5c(c4)CNC5=O)c4ccsc4c3-c3c(F)cc(F)cc3OCCOC)cc2C1 (single isomer, unassigned) [Compound 887] | A (percent of modification of PIK3CA protein ≥75%) |
| – | < 0.1 | – | C=CC(=O)N1CCn2nc(-c3nc(-c4ccc5c(c4)CCN(C)C5)c4ccsc4c3-c3c(F)cc(F)cc3OC(C)C)cc2[C@H]1C [Compound 543] | – |
| – | – | > 1 | CCC(=O)N1CCn2nc(-c3nc(-c4ccc5c(cnn5C)c4)c4ccsc4c3-c3c(F)cc(F)cc3OCCOC)cc2C1C (stereo not drawn) [Compound 1204] | – |
| – | – | > 1 | CC1c2cc(-c3nc(-c4ccc5c(cnn5C)c4)c4ccsc4c3-c3c(F)cc(F)cc3OCCO)nn2CCN1C(=O)C(O)CO (stereo not drawn) [Compound 1235] | – |
| – | – | > 1 | CC1c2cc(-c3nc(-c4ccc5c(cnn5C)c4)c4ccsc4c3-c3c(F)cc(F)cc3OCCO)nn2CCN1C(=O)C(O)CO (stereo not drawn) [Compound 1236] | – |
| – | – | > 1 | COCCOc1cc(F)cc(F)c1-c1c(-c2cc3n(n2)CCN(C(=O)C(O)CO)C3C)nc(-c2ccc3c(cnn3C)c2)c2ccsc12 (stereo not drawn) [Compound 1241] | – |

The next lines start with the compound.

| Compound | % of modification [1, 3] | IC50 ([2]; Compounds 10-999) [µM] | IC50 ([2]; Compounds 1000-1279) [µM] | % of modification [1, 4] |
| --- | --- | --- | --- | --- |
| C=CC(=O)N1CCc2nc(-c3nc(-c4ccc5c(c4)CNC5=O)c4ccsc4c3-c3c(F)cc(F)cc3OC(C)C)sc2C1 (single isomer, unassigned) [Compound 413] | D (percent of modification <25%) | 1 to 3 | – | – |
| C=CC(=O)N1CCc2nc(-c3nc(-c4ccc5c(c4)CNC5=O)c4ccsc4c3-c3c(F)cc(F)cc3OC(C)C)sc2C1 (single isomer, unassigned) [Compound 414] | A (percent of modification of PIK3CA protein ≥75%) | < 0.1 | – | – |
| C=CC(=O)N1CCc2nc(-c3nc(-c4ccc5c(c4)CCN(C)C5)c4ccsc4c3-c3c(F)cc(F)cc3OC(C)C)sc2C1 (single isomer, unassigned) [Compound 447] | D (percent of modification <25%) | 0.1 to 1 | – | – |
| C=CC(=O)N1CCc2nc(-c3nc(-c4ccc5c(c4)CCN(C)C5)c4ccsc4c3-c3c(F)cc(F)cc3OC(C)C)sc2C1 (single isomer, unassigned) [Compound 448] | A (percent of modification of PIK3CA protein ≥75%) | < 0.1 | – | – |
| C=CC(=O)N1CCc2nc(-c3nc(-c4ccc5c(c4)CCN(C)C5)c4ccsc4c3-c3c(F)cc(F)cc3OCCOC)sc2C1 (single isomer, unassigned) [Compound 449] | D (percent of modification <25%) | 1 to 3 | – | – |
| C=CC(=O)N1CCc2nc(-c3nc(-c4ccc5c(c4)CCN(C)C5)c4ccsc4c3-c3c(F)cc(F)cc3OCCOC)sc2C1 (single isomer, unassigned) [Compound 450] | A (percent of modification of PIK3CA protein ≥75%) | < 0.1 | – | – |
| C=C(F)C(=O)N1CCn2nc(-c3nc(-c4ccc5c(c4)CCN(C)C5)c4ccsc4c3-c3c(F)cc(F)cc3OC(C)C)cc2C1 (single isomer, unassigned) [Compound 486] | A (percent of modification of PIK3CA protein ≥75%) | < 0.1 | – | – |
| C=C(F)C(=O)N1Cc2cc(-c3nc(-c4ccc5c(c4)CCN(C)C5)c4ccsc4c3-c3c(F)cc(F)cc3OC(C)C)nn2CC1C (single isomer, unassigned) [Compound 500] | D (percent of modification <25%) | > 3 | – | – |
| C=C(F)C(=O)N1Cc2cc(-c3nc(-c4ccc5c(c4)CCN(C)C5)c4ccsc4c3-c3c(F)cc(F)cc3OC(C)C)nn2CC1C (single isomer, unassigned) [Compound 501] | D (percent of modification <25%) | 0.1 to 1 | – | – |
| C=CC(=O)N1CCc2nc(-c3nc(-c4cnc5c(c4)CNC(=O)C5)c4ccsc4c3-c3c(F)cc(F)cc3OC(C)C)sc2C1 (single isomer, unassigned) [Compound 588] | A (percent of modification of PIK3CA protein ≥75%) | < 0.1 | – | – |
| C=CC(=O)N1CCCC1Cn1cc(-c2nc(-c3ccc4c(c3)CCNC4)c3ccsc3c2-c2ccc(F)cc2OCCOC)cn1 (stereo not drawn) [Compound 63] | A (percent of modification of PIK3CA protein ≥75%) | – | – | – |
| C=CC(=O)N1CCc2ccc(-c3nc(-c4ccc5c(c4)CCNC5)c4ccsc4c3-c3ccc(F)cc3OCCOC)cc21 [Compound 65] | D (percent of modification <25%) | – | – | – |
| C=CC(=O)N1CCCc2ccc(-c3nc(-c4ccc5c(c4)CCNC5)c4ccsc4c3-c3ccc(F)cc3OCCOC)cc21 [Compound 66] | D (percent of modification <25%) | – | – | – |
| C=CC(=O)N[C@H]1CCc2ccc(-c3nc(-c4ccc5c(c4)CCNC5)c4ccsc4c3-c3ccc(F)cc3OCCOC)cc21 [Compound 81] | D (percent of modification <25%) | – | – | – |
| CCC(=O)N1CC(n2cc(-c3nc(-c4ccc5c(c4)CCNC5)c4ccsc4c3-c3ccc(F)cc3OC)cn2)C1 [Compound 124] | – | > 3 | – | – |
| COCCOc1cc(F)ccc1-c1c(-c2ccc(OC(C)C)cc2F)nc(-c2ccc3c(c2)CCNC3)c2ccsc12 [Compound 231] | – | > 3 | – | – |
| CCC(=O)N1CCn2nc(-c3nc(-c4ccc5c(c4)CCNC5=O)c4ccsc4c3-c3ccc(F)cc3OC(C)C)nc2C1 [Compound 260] | – | > 3 | – | – |
| CCC(=O)N1CCn2nc(-c3nc(-c4ccc5c(c4)CCNC5=O)c4ccsc4c3-c3ccc(F)cc3OC(C)C)cc2C1 [Compound 269] | – | 0.1 to 1 | – | – |
| C=CC(=O)N1CCn2nc(-c3nc(-c4ccc5c(c4)CCN(C)C5)c4ccsc4c3-c3c(F)cc(F)cc3OC(C)C)cc2[C@@H]1C [Compound 540] | – | 1 to 3 | – | – |
| C=CC(=O)N1CCn2nc(-c3nc(-c4ccc5c(c4)CCN(C)C5)c4ccsc4c3-c3c(F)cc(F)cc3OC(C)C)cc2[C@@H]1C [Compound 541] | – | < 0.1 | – | – |
| C=CC(=O)N1CCn2nc(-c3nc(-c4ccc5c(c4)CCN(C)C5)c4ccsc4c3-c3c(F)cc(F)cc3OC(C)C)cc2[C@H]1C [Compound 542] | – | 0.1 to 1 | – | – |
